# Measurements taken from patent publication US6737383B1, “Herbicidal oxadiazolidines” (priority 1999, dated 2004).
# Columns and labels:
# wild oat [1] = assay: Test E wild oat; format: in vivo, Avena fatua; details: Preemergence; for Wild oat plant response rating (0 to 100 scale): Rate 250 g/ha
# velvetleaf = assay: Test B pre/postemergence velvetleaf; format: in vivo, Abutilon theophrasti
# How it was run: (§1)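 Herbicidal effect was estimated by eye on a ten-point control scale after plants spent twelve to sixteen days in a greenhouse following soil or foliar treatment. Foliar sprays targeted plants at one to four leaves; all doses were formulated in a non-phytotoxic solvent with surfactant.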
# winter barley = assay: Test E winter barley; format: in vivo, Hordeum vulgare; details: Preemergence; for Barley (winter) plant response rating (0 to 100 scale): Rate 250 g/ha
# winter wheat [2] = assay: Test E winter wheat; format: in vivo, Triticum aestivum; details: Postemergence; for Wheat (winter) plant response rating: Rate 250 g/ha
# How it was run: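 Greenhouse test: for postemergence, foliar application at 1- to 4-leaf stage; compound in non-phytotoxic solvent with surfactant. Rating is visual, relative to untreated controls, about 21 to 28 days after treatment.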
# wild oat [3] = assay: Test B pre/postemergence wild oat; format: in vivo, Avena fatua
# How it was run: as §1
# bedstraw = assay: Test B pre/postemergence bedstraw; format: in vivo, Galium aparine
# How it was run: as §1
# green foxtail = assay: Test E green foxtail; format: in vivo, Setaria viridis; details: Preemergence; for Green foxtail plant response rating (0 to 100 scale): Rate 250 g/ha
# winter wheat [4] = assay: Test E winter wheat; format: in vivo, Triticum aestivum; details: Preemergence; for Wheat (winter) plant response rating (0 to 100 scale): Rate 250 g/ha
# blackgrass = assay: Test E blackgrass; format: in vivo, Alopecurus myosuroides; details: Preemergence; for Blackgrass plant response rating (0 to 100 scale): Rate 250 g/ha
# Italian ryegrass = assay: Test E Italian ryegrass; format: in vivo, Lolium multiflorum; details: Preemergence; for I. Ryegrass plant response rating (0 to 100 scale): Rate 250 g/ha
# morningglory = assay: Test B pre/postemergence morningglory; format: in vivo, Ipomoea hederacea
# How it was run: as §1
# [5] = Rate 500 g/ha, 0 to 100 scale (0 no effect, 100 complete control)
# [6] = Rate 1000 g/ha, 0 to 100 scale, 0 no effect, 100 complete control
# [7] = Postemergence, Rate 31 g/ha, visual rating, scale 0 to 10 (0 no effect, 10 complete control)
# [8] = Preemergence, Rate 31 g/ha, visual rating, scale 0 to 10 (0 no effect, 10 complete control)
# [9] = Preemergence, Rate 62 g/ha, scale of 0 to 10 where 0 is no effect and 10 is complete control
# [10] = Rate 16 g/ha, Postemergence, scale 0 to 10, 0 no effect, 10 complete control
# [11] = Rate 16 g/ha, Preemergence, scale 0 to 10, 0 no effect, 10 complete control
# [12] = Rate 62 g/ha, Postemergence, scale 0 to 10 (0 no effect, 10 complete control)
# [13] = Rate 125 g/ha, Postemergence, scale of 0 to 10 where 0 is no effect and 10 is complete control
# [14] = Rate 125 g/ha, Preemergence, scale of 0 to 10 where 0 is no effect and 10 is complete control
# [15] = 0 to 100 scale where 0 is no effect and 100 is complete control
# [16] = Rate 500 g/ha, 0 to 100 scale, 0 is no effect, 100 is complete control
# [17] = Rate 125 g/ha, 0 to 100 scale (0 no effect, 100 complete control)
# [18] = Preemergence, Rate 250 g/ha, scale of 0 to 10 where 0 is no effect and 10 is complete control
# [19] = Preemergence, Rate 500 g/ha, scale of 0 to 10 where 0 is no effect and 10 is complete control
# [20] = Rate 250 g/ha, Postemergence, scale of 0 to 10 where 0 is no effect and 10 is complete control
# [21] = Rate 125 g/ha, 0 to 100 scale, 0 is no effect, 100 is complete control
smiles,measurement,setting,value
CCCCCn1c(=O)on(C(=O)N(c2ccc(F)cc2)C(C)C)c1=O [Compound 290],Wild oat plant response rating (0 to 100 scale),wild oat [1],60
same,"Plant response rating, Wild oat",wild oat [1]; [5],70
same,"Plant response rating, Wild oat",wild oat [1]; [6],70
same,Velvetleaf plant response rating,velvetleaf; [7],0
same,Velvetleaf plant response rating,velvetleaf; [8],0
same,Velvetleaf plant response rating,velvetleaf; [9],0
same,Velvetleaf plant response rating,velvetleaf; [10],0
same,Velvetleaf plant response rating,velvetleaf; [11],0
same,Velvetleaf plant response rating,velvetleaf; [12],0
same,Velvetleaf plant response rating,velvetleaf; [13],0
same,Velvetleaf plant response rating,velvetleaf; [14],0
same,Barley (winter) plant response rating (0 to 100 scale),winter barley,55
same,"Plant response rating, Barley (winter)",winter barley; [5],60
same,"Plant response rating, Barley (winter)",winter barley; [6],70
same,"Plant response rating, Wheat (winter)","winter wheat [2]; Rate 1000 g/ha, 0 to 100 scale where 0 is no effect and 100 is complete control",70
same,Wheat (winter) plant response rating,winter wheat [2]; [15],50
same,"Plant response rating, Wheat (winter)",winter wheat [2]; [16],60
same,Wild oats plant response rating,wild oat [3]; [7],0
same,Wild oats plant response rating,wild oat [3]; [8],0
same,Wild oats plant response rating,wild oat [3]; [9],0
same,Wild oats plant response rating,wild oat [3]; [10],0
same,Wild oats plant response rating,wild oat [3]; [11],0
same,Wild oats plant response rating,wild oat [3]; [12],0
same,Wild oats plant response rating,wild oat [3]; [13],0
same,Bedstraw plant response rating,bedstraw; [7],0
same,Bedstraw plant response rating,bedstraw; [8],0
same,Bedstraw plant response rating,bedstraw; [9],0
same,Bedstraw plant response rating,bedstraw; [10],0
same,Bedstraw plant response rating,bedstraw; [11],0
same,Bedstraw plant response rating,bedstraw; [12],0
same,Bedstraw plant response rating,bedstraw; [13],0
same,Bedstraw plant response rating,bedstraw; [14],3
same,Green foxtail plant response rating (0 to 100 scale),green foxtail,65
same,"Plant response rating, Green foxtail",green foxtail; [5],70
same,"Plant response rating, Green foxtail",green foxtail; [6],85
same,Wheat (winter) plant response rating (0 to 100 scale),winter wheat [4],10
same,"Plant response rating, Wheat (winter)",winter wheat [4]; [5],30
same,"Plant response rating, Wheat (winter)",winter wheat [4]; [6],50
same,Blackgrass plant response rating (0 to 100 scale),blackgrass,60
same,"Plant response rating, Blackgrass",blackgrass; [5],70
same,"Plant response rating, Blackgrass",blackgrass; [6],95
same,I. Ryegrass plant response rating (0 to 100 scale),Italian ryegrass,60
same,"Plant response rating, I. Ryegrass",Italian ryegrass; [5],70
same,"Plant response rating, I. Ryegrass",Italian ryegrass; [6],90
same,Morningglory plant response rating,morningglory; [7],4
same,Morningglory plant response rating,morningglory; [8],0
same,Morningglory plant response rating,morningglory; [9],0
same,Morningglory plant response rating,morningglory; [10],3
same,Morningglory plant response rating,morningglory; [11],0
same,Morningglory plant response rating,morningglory; [12],4
same,Morningglory plant response rating,morningglory; [13],6
same,Morningglory plant response rating,morningglory; [14],0
COCn1c(=O)on(C(=O)N(c2ccc(F)cc2)C(C)C)c1=O [Compound 293],"Plant response rating, Wild oat",wild oat [1]; [17],0
same,Wild oat plant response rating (0 to 100 scale),wild oat [1],10
same,"Plant response rating, Wild oat",wild oat [1]; [5],50
same,Velvetleaf plant response rating,velvetleaf; [9],4
same,Velvetleaf plant response rating,velvetleaf; [18],7
same,"Plant response rating, Velvetleaf",velvetleaf; [19],8
same,Velvetleaf plant response rating,velvetleaf; [12],0
same,Velvetleaf plant response rating,velvetleaf; [13],2
same,Velvetleaf plant response rating,velvetleaf; [14],4
same,"Plant response rating, Velvetleaf",velvetleaf; [20],2
same,"Plant response rating, Barley (winter)",winter barley; [17],40
same,Barley (winter) plant response rating (0 to 100 scale),winter barley,40
same,"Plant response rating, Barley (winter)",winter barley; [5],50
same,"Plant response rating, Wheat (winter)",winter wheat [2]; [21],50
same,Wheat (winter) plant response rating,winter wheat [2]; [15],30
same,"Plant response rating, Wheat (winter)",winter wheat [2]; [16],50
same,Wild oats plant response rating,wild oat [3]; [9],1
same,Wild oats plant response rating,wild oat [3]; [18],8
same,"Plant response rating, Wild oats",wild oat [3]; [19],9
same,Wild oats plant response rating,wild oat [3]; [12],0
same,Wild oats plant response rating,wild oat [3]; [13],0
same,"Plant response rating, Wild oats",wild oat [3]; [20],3
same,Bedstraw plant response rating,bedstraw; [9],0
same,Bedstraw plant response rating,bedstraw; [18],0
same,"Plant response rating, Bedstraw",bedstraw; [19],0
same,Bedstraw plant response rating,bedstraw; [12],0
same,Bedstraw plant response rating,bedstraw; [13],2
same,Bedstraw plant response rating,bedstraw; [14],0
same,"Plant response rating, Bedstraw",bedstraw; [20],3
same,Bedstraw plant response rating,"bedstraw; Rate 500 g/ha, Postemergence, scale 0 to 10, 0 no effect, 10 complete control",9
same,"Plant response rating, Green foxtail",green foxtail; [17],55
same,Green foxtail plant response rating (0 to 100 scale),green foxtail,70
same,"Plant response rating, Green foxtail",green foxtail; [5],60
same,"Plant response rating, Wheat (winter)",winter wheat [4]; [17],40
same,Wheat (winter) plant response rating (0 to 100 scale),winter wheat [4],50
same,"Plant response rating, Wheat (winter)",winter wheat [4]; [5],55
same,"Plant response rating, Blackgrass",blackgrass; [17],40
same,"Plant response rating, Blackgrass",blackgrass; [5],50
same,"Plant response rating, I. Ryegrass",Italian ryegrass; [17],30
same,I. Ryegrass plant response rating (0 to 100 scale),Italian ryegrass,50
same,"Plant response rating, I. Ryegrass",Italian ryegrass; [5],50
same,Morningglory plant response rating,morningglory; [9],0
same,Morningglory plant response rating,morningglory; [18],0
same,"Plant response rating, Morningglory",morningglory; [19],4
same,Morningglory plant response rating,morningglory; [12],1
same,Morningglory plant response rating,morningglory; [13],5
same,Morningglory plant response rating,morningglory; [14],0
same,"Plant response rating, Morningglory",morningglory; [20],5
CCOCn1c(=O)on(C(=O)N(c2ccc(F)cc2)C(C)C)c1=O [Compound 295],"Plant response rating, Wild oat",wild oat [1]; [17],0
same,Wild oat plant response rating (0 to 100 scale),wild oat [1],10
same,Velvetleaf plant response rating,velvetleaf; [7],0
same,Velvetleaf plant response rating,velvetleaf; [8],0
same,Velvetleaf plant response rating,velvetleaf; [9],0
same,Velvetleaf plant response rating,velvetleaf; [18],3
same,Velvetleaf plant response rating,velvetleaf; [12],0
same,Velvetleaf plant response rating,velvetleaf; [13],0
same,Velvetleaf plant response rating,velvetleaf; [14],0
same,"Plant response rating, Velvetleaf",velvetleaf; [20],5
same,"Plant response rating, Barley (winter)",winter barley; [17],20
same,Barley (winter) plant response rating (0 to 100 scale),winter barley,30
same,"Plant response rating, Wheat (winter)",winter wheat [2]; [21],30
same,Wheat (winter) plant response rating,winter wheat [2]; [15],50
same,Wild oats plant response rating,wild oat [3]; [7],0
same,Wild oats plant response rating,wild oat [3]; [8],0
same,Wild oats plant response rating,wild oat [3]; [9],2
same,Wild oats plant response rating,wild oat [3]; [18],9
same,Wild oats plant response rating,wild oat [3]; [12],0
same,Wild oats plant response rating,wild oat [3]; [13],0
same,"Plant response rating, Wild oats",wild oat [3]; [20],2
same,Bedstraw plant response rating,bedstraw; [7],0
same,Bedstraw plant response rating,bedstraw; [8],0
same,Bedstraw plant response rating,bedstraw; [9],0
same,Bedstraw plant response rating,bedstraw; [18],0
same,Bedstraw plant response rating,bedstraw; [12],0
same,Bedstraw plant response rating,bedstraw; [13],4
same,Bedstraw plant response rating,bedstraw; [14],0
same,"Plant response rating, Bedstraw",bedstraw; [20],4
same,"Plant response rating, Green foxtail",green foxtail; [17],50
same,Green foxtail plant response rating (0 to 100 scale),green foxtail,100
same,"Plant response rating, Wheat (winter)",winter wheat [4]; [17],40
same,Wheat (winter) plant response rating (0 to 100 scale),winter wheat [4],60
same,"Plant response rating, Blackgrass",blackgrass; [17],0
same,Blackgrass plant response rating (0 to 100 scale),blackgrass,10
same,"Plant response rating, I. Ryegrass",Italian ryegrass; [17],40
same,I. Ryegrass plant response rating (0 to 100 scale),Italian ryegrass,50
same,Morningglory plant response rating,morningglory; [7],1
same,Morningglory plant response rating,morningglory; [8],0
same,Morningglory plant response rating,morningglory; [9],0
same,Morningglory plant response rating,morningglory; [18],0
same,Morningglory plant response rating,morningglory; [12],1
same,Morningglory plant response rating,morningglory; [13],5
same,Morningglory plant response rating,morningglory; [14],0
same,"Plant response rating, Morningglory",morningglory; [20],7
